Measurements reported in patent publication US8987267B2, “2-substituted-8-alkyl-7-OXO-7,8-dihydropyrido[2,3-D]pyrimidine-6-carbonitriles and uses thereof in treating proliferative disorders” (Temple University—of the Commonwealth System of Higher …, priority 2010, dated 2015).

How the values were obtained:
Type in all cases: biochemical
[1] = molecular target: T1, His-tagged full length ARK5 (Homo sapiens, UniProt O60285); experiment: ARK5 Kinase Assay (ARK5 Inhibition Assay); details: CHKtide substrate, 1 μM ATP
T1 construct: 20 ng His-tagged full length ARK5 (Invitrogen PV4127); His; purchased Invitrogen PV4127
T1 sequence (O60285 1-661): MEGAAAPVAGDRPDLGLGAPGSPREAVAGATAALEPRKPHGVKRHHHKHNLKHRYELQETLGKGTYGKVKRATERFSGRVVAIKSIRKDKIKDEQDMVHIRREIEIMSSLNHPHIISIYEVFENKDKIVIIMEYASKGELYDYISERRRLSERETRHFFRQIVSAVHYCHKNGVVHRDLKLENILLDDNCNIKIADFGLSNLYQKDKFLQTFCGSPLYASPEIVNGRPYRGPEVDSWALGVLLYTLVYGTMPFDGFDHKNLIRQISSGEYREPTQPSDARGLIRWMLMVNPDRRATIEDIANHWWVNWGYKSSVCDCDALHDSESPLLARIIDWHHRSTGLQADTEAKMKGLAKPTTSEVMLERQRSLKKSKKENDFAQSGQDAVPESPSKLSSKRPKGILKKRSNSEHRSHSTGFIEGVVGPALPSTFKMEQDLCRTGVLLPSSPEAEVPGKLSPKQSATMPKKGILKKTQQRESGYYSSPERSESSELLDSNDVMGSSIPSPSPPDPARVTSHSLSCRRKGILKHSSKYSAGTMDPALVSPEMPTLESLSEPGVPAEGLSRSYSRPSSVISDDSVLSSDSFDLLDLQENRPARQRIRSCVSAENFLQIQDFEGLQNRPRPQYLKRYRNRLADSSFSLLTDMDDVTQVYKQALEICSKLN
Experimental: 20 ng His-tagged full length ARK5 (Invitrogen PV4127), a protein kinase, was diluted into kinase buffer (25 mM HEPES pH 7.5, 10 mM MgCl2, 0.5 mM EGTA, 0.5 mM Na3V04, 5 mM β Glycerophosphate, 2.5 mM DTT, 0.01% Triton X-100) and incubated with the indicated concentration of a compound of Table 3 at room temperature for 30 minutes. The kinase reactions were then initiated by the addition of 1 μg (3.28 μM) CHKtide substrate peptide (Upstate 12-414), 1 μM ATP and 10 μCi γ^32 P-ATP. The reactions were incubated at 30° C. for 10 minutes.
Subsequently, the reactions were stopped by adding 3% phosphoric acid. A 10 μl aliquot was then transferred to an appropriate area of a p30 filtermat. The filtermat was allowed to dry for 20 minutes at room temperature and then washed three times with 75 mM phosphoric acid and twice with methanol. The filtermat was then dried for 20 minutes at room temperature. The filtermat was then exposed to X ray film or read in a scintillation counter. The scintillation counting values were plotted as function of log drug concentration using Prism 4 Graph pad software and IC50 values determined by plotting sigmoidal non-linear regression curves with variable slope.

[2] = molecular target: ARK5 (Homo sapiens, UniProt O60285); experiment: Kinase inhibition panel; details: 10 μM ATP
[3] = molecular target: TTK (Homo sapiens, UniProt P33981); experiment: Kinase inhibition panel; details: 10 μM ATP
[4] = molecular target: PKCmu (Homo sapiens, UniProt Q15139); experiment: Kinase inhibition panel; details: 10 μM ATP
[5] = molecular target: FLT4NEGFR3 (Homo sapiens, UniProt P35916); experiment: Kinase inhibition panel; details: 10 μM ATP
[6] = molecular target: FGR (Homo sapiens, UniProt P09769); experiment: Kinase inhibition panel; details: 10 μM ATP
[7] = molecular target: c-Kit (Homo sapiens, UniProt P10721); experiment: Kinase inhibition panel; details: 10 μM ATP
Sequence of c-Kit (P10721 26-976): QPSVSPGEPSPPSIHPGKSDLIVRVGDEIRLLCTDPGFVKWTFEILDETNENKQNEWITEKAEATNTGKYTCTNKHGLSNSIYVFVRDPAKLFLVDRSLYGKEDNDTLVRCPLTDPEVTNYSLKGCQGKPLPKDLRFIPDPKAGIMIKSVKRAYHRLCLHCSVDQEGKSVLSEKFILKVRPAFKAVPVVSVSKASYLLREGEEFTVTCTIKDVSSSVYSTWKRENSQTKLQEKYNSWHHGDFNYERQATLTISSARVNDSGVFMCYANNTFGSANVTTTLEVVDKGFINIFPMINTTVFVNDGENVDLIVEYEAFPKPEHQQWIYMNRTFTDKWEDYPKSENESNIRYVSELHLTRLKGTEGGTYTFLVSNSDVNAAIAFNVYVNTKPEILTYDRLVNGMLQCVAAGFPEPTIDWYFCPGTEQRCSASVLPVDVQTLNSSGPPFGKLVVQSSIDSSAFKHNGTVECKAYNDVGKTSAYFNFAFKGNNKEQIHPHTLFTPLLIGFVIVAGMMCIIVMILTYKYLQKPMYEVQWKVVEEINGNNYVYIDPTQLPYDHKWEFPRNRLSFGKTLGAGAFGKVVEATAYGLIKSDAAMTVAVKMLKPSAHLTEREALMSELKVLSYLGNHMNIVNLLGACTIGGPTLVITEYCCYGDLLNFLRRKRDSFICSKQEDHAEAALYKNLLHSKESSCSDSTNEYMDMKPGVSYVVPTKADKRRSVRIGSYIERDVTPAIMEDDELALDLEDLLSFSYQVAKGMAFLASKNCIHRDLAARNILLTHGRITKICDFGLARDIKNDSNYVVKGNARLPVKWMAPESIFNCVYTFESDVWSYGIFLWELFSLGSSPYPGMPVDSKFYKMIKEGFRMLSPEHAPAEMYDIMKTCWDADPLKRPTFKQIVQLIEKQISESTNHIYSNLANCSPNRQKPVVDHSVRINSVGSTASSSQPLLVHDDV

Sequence of PKCmu (Q15139 whole entry): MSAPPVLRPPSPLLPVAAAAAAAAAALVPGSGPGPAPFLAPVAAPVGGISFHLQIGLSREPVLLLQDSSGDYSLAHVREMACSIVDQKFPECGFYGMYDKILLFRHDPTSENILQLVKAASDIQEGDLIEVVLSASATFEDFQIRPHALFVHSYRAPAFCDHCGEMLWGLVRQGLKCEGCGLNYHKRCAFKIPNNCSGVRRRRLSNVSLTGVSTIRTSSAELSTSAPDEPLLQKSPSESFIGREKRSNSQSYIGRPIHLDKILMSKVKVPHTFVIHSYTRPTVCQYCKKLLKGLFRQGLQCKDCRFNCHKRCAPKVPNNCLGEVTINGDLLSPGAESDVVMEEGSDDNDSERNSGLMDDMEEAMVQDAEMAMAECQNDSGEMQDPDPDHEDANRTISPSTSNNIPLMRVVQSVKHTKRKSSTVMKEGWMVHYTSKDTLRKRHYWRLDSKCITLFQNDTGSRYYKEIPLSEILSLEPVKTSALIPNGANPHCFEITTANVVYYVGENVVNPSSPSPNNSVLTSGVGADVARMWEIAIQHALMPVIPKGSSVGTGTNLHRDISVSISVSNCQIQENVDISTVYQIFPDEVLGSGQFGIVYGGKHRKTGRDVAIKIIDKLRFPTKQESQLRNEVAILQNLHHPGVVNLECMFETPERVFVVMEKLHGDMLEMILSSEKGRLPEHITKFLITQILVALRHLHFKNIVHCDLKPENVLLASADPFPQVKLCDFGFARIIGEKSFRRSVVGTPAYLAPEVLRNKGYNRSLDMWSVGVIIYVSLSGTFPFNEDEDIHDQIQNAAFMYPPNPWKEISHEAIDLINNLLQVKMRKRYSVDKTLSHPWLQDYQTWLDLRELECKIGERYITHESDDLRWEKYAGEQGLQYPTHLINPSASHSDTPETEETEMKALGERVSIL
Sequence of TTK (P33981 whole entry, species assumed): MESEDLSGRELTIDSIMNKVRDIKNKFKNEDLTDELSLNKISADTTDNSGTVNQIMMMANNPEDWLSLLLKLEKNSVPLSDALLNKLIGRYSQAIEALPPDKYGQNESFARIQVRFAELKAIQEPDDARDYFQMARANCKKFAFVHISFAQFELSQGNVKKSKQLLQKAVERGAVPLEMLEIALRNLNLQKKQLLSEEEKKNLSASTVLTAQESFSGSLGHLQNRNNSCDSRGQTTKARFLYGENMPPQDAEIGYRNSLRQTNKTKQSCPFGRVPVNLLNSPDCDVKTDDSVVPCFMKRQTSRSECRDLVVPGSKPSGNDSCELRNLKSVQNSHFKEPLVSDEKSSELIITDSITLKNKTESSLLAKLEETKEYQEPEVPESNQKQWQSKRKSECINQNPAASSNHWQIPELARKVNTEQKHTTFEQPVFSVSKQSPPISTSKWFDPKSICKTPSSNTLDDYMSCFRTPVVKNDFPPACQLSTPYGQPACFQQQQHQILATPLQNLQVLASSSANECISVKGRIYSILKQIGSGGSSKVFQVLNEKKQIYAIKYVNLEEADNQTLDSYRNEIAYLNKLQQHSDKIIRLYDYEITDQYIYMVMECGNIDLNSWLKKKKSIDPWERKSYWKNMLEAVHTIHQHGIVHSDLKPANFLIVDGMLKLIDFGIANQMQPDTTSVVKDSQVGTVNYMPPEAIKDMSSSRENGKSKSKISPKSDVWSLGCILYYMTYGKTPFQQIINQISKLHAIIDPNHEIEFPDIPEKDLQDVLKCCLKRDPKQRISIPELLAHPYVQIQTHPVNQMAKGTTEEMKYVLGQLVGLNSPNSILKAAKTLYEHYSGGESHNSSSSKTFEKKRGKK
Sequence of FLT4NEGFR3 (P35916 25-1363): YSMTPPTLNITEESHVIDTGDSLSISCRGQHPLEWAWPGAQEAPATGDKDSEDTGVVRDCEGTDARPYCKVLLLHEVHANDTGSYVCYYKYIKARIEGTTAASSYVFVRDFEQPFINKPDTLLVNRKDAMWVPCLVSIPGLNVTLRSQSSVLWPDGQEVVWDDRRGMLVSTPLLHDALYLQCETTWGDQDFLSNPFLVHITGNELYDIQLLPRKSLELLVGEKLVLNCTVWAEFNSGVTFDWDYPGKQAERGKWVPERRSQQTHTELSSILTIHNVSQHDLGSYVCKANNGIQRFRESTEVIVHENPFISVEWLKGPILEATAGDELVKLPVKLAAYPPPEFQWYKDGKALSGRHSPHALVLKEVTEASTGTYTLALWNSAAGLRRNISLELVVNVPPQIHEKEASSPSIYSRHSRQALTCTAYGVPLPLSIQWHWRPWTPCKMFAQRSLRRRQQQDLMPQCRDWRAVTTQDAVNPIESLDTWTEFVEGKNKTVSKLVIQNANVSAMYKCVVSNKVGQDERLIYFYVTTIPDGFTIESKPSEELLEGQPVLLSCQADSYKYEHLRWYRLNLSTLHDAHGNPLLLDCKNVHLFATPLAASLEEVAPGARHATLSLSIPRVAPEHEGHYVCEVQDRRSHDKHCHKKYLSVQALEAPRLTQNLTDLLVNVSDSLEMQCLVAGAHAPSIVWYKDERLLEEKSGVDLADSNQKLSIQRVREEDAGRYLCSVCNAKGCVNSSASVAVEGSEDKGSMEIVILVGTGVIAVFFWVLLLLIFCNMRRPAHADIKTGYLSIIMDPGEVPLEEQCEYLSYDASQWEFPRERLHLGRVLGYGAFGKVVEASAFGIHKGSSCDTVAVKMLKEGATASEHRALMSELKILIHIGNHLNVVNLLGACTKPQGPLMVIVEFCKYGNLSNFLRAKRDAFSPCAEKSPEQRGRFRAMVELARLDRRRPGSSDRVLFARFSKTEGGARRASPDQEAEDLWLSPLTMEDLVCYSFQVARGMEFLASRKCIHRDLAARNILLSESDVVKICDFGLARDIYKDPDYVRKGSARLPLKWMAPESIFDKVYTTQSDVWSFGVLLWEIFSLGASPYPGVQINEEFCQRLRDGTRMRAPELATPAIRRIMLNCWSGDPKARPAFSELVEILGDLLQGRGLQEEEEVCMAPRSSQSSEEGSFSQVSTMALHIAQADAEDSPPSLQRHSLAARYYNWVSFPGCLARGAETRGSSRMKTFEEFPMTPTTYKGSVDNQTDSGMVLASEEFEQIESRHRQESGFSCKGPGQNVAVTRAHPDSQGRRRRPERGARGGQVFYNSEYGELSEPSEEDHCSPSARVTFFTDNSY
Sequence of FGR (P09769 whole entry, species assumed): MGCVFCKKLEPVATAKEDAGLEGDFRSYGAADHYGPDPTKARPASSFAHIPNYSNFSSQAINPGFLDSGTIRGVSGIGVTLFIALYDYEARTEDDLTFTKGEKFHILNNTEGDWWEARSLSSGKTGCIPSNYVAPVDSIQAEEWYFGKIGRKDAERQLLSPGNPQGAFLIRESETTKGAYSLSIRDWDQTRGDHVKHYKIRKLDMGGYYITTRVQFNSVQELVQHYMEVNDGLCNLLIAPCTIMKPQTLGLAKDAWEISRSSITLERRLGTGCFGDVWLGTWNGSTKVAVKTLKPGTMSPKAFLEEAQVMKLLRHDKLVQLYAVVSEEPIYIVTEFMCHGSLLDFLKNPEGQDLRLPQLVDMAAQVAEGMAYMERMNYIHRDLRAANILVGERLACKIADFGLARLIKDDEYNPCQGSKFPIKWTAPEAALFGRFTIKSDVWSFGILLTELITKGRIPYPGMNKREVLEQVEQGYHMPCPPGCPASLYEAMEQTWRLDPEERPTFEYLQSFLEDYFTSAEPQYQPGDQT

Row | Compound | IC50 [1] [nM] | other results
1 | CN1CCN(c2ccc(Nc3ncc4cc(C#N)c(=O)n(C5CCCCC5)c4n3)cc2)CC1 [Compound 16, 8-cyclohexyl-2-((4-(4-methylpiperazin-1-yl)phenyl)amino)-7-oxo-7,8-dihydropyrido[2,3-d]pyrimidine-6-carbonitrile] | 43.4 | 
2 | CN1CCN(c2ccc(Nc3ncc4cc(S(C)(=O)=O)c(=O)n(C5CCCC5)c4n3)cc2)CC1 [Comp. Ex. 1, 8-cyclopentyl-2-((4-(4-methylpiperazin-1-yl)phenyl)amino)-6-(methylsulfonyl)pyrido[2,3-d]pyrimidin-7(8H)-one, reference compound] | > 10000 | 
3 | N#Cc1cc2cnc(Nc3ccc(N4CCOCC4)cc3)nc2n(C2CCCC2)c1=O [Compound 13, 8-cyclopentyl-2-((4-morpholinophenyl)amino)-7-oxo-7,8-dihydropyrido[2,3-d]pyrimidine-6-carbonitrile] | 75 | 
4 | CN1CCN(c2ccc(Nc3ncc4cc(S(=O)(=O)c5ccc(Cl)cc5)c(=O)n(C5CCCC5)c4n3)cc2)CC1 [Comp. Ex. 2, 6-((4-chlorophenyl)sulfonyl)-8-cyclopentyl-2-((4-(4-methylpiperazin-1-yl)phenyl)amino)pyrido[2,3-d]pyrimidin-7(8H)-one, reference compound] | > 10000 | 
5 | CC(=O)c1c(C)c2cnc(Nc3ccc(N4CCNCC4)cn3)nc2n(C2CCCC2)c1=O [PD0332991, reference compound] |  | IC50 [2]: 3390 nM; IC50 [3]: 697 nM; IC50 [4]: 126 nM; IC50 [5]: > 10000 nM; IC50 [6]: > 10000 nM; IC50 [7]: > 10000 nM

Now from value to compound, other results behind:

Row | IC50 [1] [nM] | Compound | other results
6 | 49.8 | COc1cc(Nc2ncc3cc(C#N)c(=O)n(C4CCCC4)c3n2)cc(OC)c1OC [Compound 15, 8-cyclopentyl-7-oxo-2-((3,4,5-trimethoxyphenyl)amino)-7,8-dihydropyrido[2,3-d]pyrimidine-6-carbonitrile] | 
7 | > 1000 | COc1ccc(Nc2ncc3ccc(=O)n(C4CCCC4)c3n2)cc1OC [Comp. Ex. 4, 8-cyclopentyl-2-((3,4-dimethoxyphenyl)amino)pyrido[2,3-d]pyrimidin-7(8H)-one, reference compound] | 
8 | > 5000 | COc1ccc(Nc2ncc3ccc(=O)n(C4CCCC4)c3n2)c(OC)c1 [Comp. Ex. 5, 8-cyclopentyl-2-((2,4-dimethoxyphenyl)amino)pyrido[2,3-d]pyrimidin-7(8H)-one, reference compound] | 
9 | 75 | COc1cc(Nc2ncc3cc(C#N)c(=O)n(C4CCCC4)c3n2)cc(OC)c1 [Compound 14, 8-cyclopentyl-2-((3,5-dimethoxyphenyl)amino)-7-oxo-7,8-dihydropyrido[2,3-d]pyrimidine-6-carbonitrile] | 
